According to PubChem BioAssay (NCI):
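Assay format: 96-well plates, 48-hour exposure. Here, GI50 denotes the concentration required for 50% inhibition of growth. TGI is the concentration that stops growth completely.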

How the values were obtained:
Assay in all cases: inhibition of tumour cell growth, NCI panel, 48 h
MOLT-4 leukemia = tested on: MOLT-4 leukemia
SF-295 CNS = tested on: SF-295 CNS
SN12C renal = tested on: SN12C renal
NCI-H226 lung = tested on: NCI-H226 lung
COLO 205 colon = tested on: COLO 205 colon
SW-620 colon = tested on: SW-620 colon
T-47D breast = tested on: T-47D breast
CCRF-CEM leukemia = tested on: CCRF-CEM leukemia
U251 CNS = tested on: U251 CNS
SF-539 CNS = tested on: SF-539 CNS
UACC-257 melanoma = tested on: UACC-257 melanoma
SK-MEL-2 melanoma = tested on: SK-MEL-2 melanoma
CAKI-1 renal = tested on: CAKI-1 renal
NCI-H23 lung = tested on: NCI-H23 lung
SR leukemia = tested on: SR leukemia
SK-OV-3 ovarian = tested on: SK-OV-3 ovarian
RPMI-8226 leukemia = tested on: RPMI-8226 leukemia
A498 renal = tested on: A498 renal
IGROV1 ovarian = tested on: IGROV1 ovarian
OVCAR-3 ovarian = tested on: OVCAR-3 ovarian
TK-10 renal = tested on: TK-10 renal
SNB-75 CNS = tested on: SNB-75 CNS
KM12 colon = tested on: KM12 colon
SK-MEL-28 melanoma = tested on: SK-MEL-28 melanoma
UACC-62 melanoma = tested on: UACC-62 melanoma
SK-MEL-5 melanoma = tested on: SK-MEL-5 melanoma
MCF7 breast = tested on: MCF7 breast
OVCAR-4 ovarian = tested on: OVCAR-4 ovarian
LOX IMVI melanoma = tested on: LOX IMVI melanoma
DU-145 prostate = tested on: DU-145 prostate
K-562 leukemia = tested on: K-562 leukemia
HL-60(TB) leukemia = tested on: HL-60(TB) leukemia
HT29 colon = tested on: HT29 colon
RXF 393 renal = tested on: RXF 393 renal
BT-549 breast = tested on: BT-549 breast
HOP-92 NSCLC = tested on: HOP-92 NSCLC
PC-3 prostate = tested on: PC-3 prostate
HCC-2998 colon = tested on: HCC-2998 colon
SNB-19 CNS = tested on: SNB-19 CNS
NCI-H522 lung = tested on: NCI-H522 lung
MDA-MB-231 breast = tested on: MDA-MB-231 breast
NCI/ADR-RES ovarian = tested on: NCI/ADR-RES ovarian
HOP-62 NSCLC = tested on: HOP-62 NSCLC
786-0 renal = tested on: 786-0 renal
OVCAR-5 ovarian = tested on: OVCAR-5 ovarian
UO-31 renal = tested on: UO-31 renal
MDA-MB-435 = tested on: MDA-MB-435
HCT-116 colon = tested on: HCT-116 colon
HCT-15 colon = tested on: HCT-15 colon
ACHN renal = tested on: ACHN renal
HS 578T breast = tested on: HS 578T breast
EKVX NSCLC = tested on: EKVX NSCLC
SF-268 CNS = tested on: SF-268 CNS

SMILES: c1ccc(-c2n(Cc3ccc4ccccc4c3)c3c4ccccc4c4ccccc4c3[n+]2Cc2ccc3ccccc3c2)cc1
- GI50 (MOLT-4 leukemia): 377 nM
- TGI (MOLT-4 leukemia): 1390 nM
- GI50 (SF-295 CNS): 282 nM
- TGI (SF-295 CNS): 1110 nM
- GI50 (SN12C renal): 323 nM
- TGI (SN12C renal): 1210 nM
- GI50 (NCI-H226 lung): 408 nM
- TGI (NCI-H226 lung): 1850 nM
- GI50 (COLO 205 colon): 267 nM
- TGI (COLO 205 colon): 795 nM
- GI50 (SW-620 colon): 329 nM
- TGI (SW-620 colon): 1370 nM
- GI50 (T-47D breast): 367 nM
- TGI (T-47D breast): 1840 nM
- GI50 (CCRF-CEM leukemia): 357 nM
- TGI (CCRF-CEM leukemia): 1750 nM
- GI50 (U251 CNS): 312 nM
- TGI (U251 CNS): 1560 nM
- GI50 (SF-539 CNS): 375 nM
- TGI (SF-539 CNS): 1400 nM
- GI50 (UACC-257 melanoma): 328 nM
- TGI (UACC-257 melanoma): 1240 nM
- GI50 (SK-MEL-2 melanoma): 294 nM
- TGI (SK-MEL-2 melanoma): 853 nM
- GI50 (CAKI-1 renal): 389 nM
- TGI (CAKI-1 renal): 1520 nM
- GI50 (NCI-H23 lung): 228 nM
- TGI (NCI-H23 lung): 790 nM
- GI50 (SR leukemia): 245 nM
- TGI (SR leukemia): 825 nM
- GI50 (SK-OV-3 ovarian): 317 nM
- TGI (SK-OV-3 ovarian): 1120 nM
- GI50 (RPMI-8226 leukemia): 261 nM
- TGI (RPMI-8226 leukemia): 1040 nM
- GI50 (A498 renal): 337 nM
- TGI (A498 renal): 1230 nM
- GI50 (IGROV1 ovarian): 192 nM
- TGI (IGROV1 ovarian): 1340 nM
- GI50 (OVCAR-3 ovarian): 351 nM
- TGI (OVCAR-3 ovarian): 1230 nM
- GI50 (TK-10 renal): 468 nM
- TGI (TK-10 renal): 2000 nM
- GI50 (SNB-75 CNS): 303 nM
- TGI (SNB-75 CNS): 1400 nM
- GI50 (KM12 colon): 395 nM
- TGI (KM12 colon): 1510 nM
- GI50 (SK-MEL-28 melanoma): 569 nM
- TGI (SK-MEL-28 melanoma): 1870 nM
- GI50 (UACC-62 melanoma): 343 nM
- TGI (UACC-62 melanoma): 1400 nM
- GI50 (SK-MEL-5 melanoma): 203 nM
- TGI (SK-MEL-5 melanoma): 437 nM
- GI50 (MCF7 breast): 304 nM
- TGI (MCF7 breast): 1360 nM
- GI50 (OVCAR-4 ovarian): 298 nM
- TGI (OVCAR-4 ovarian): 1270 nM
- GI50 (LOX IMVI melanoma): 177 nM
- TGI (LOX IMVI melanoma): 355 nM
- GI50 (DU-145 prostate): 406 nM
- TGI (DU-145 prostate): 1520 nM
- GI50 (K-562 leukemia): 271 nM
- TGI (K-562 leukemia): 1180 nM
- GI50 (HL-60(TB) leukemia): 157 nM
- TGI (HL-60(TB) leukemia): 380 nM
- GI50 (HT29 colon): 179 nM
- TGI (HT29 colon): 1380 nM
- GI50 (RXF 393 renal): 280 nM
- TGI (RXF 393 renal): 1030 nM
- GI50 (BT-549 breast): 316 nM
- TGI (BT-549 breast): 1290 nM
- GI50 (HOP-92 NSCLC): 211 nM
- TGI (HOP-92 NSCLC): 740 nM
- GI50 (PC-3 prostate): 313 nM
- TGI (PC-3 prostate): 1220 nM
- GI50 (HCC-2998 colon): 407 nM
- TGI (HCC-2998 colon): 1580 nM
- GI50 (SNB-19 CNS): 364 nM
- TGI (SNB-19 CNS): 1450 nM
- GI50 (NCI-H522 lung): 340 nM
- TGI (NCI-H522 lung): 1630 nM
- GI50 (MDA-MB-231 breast): 313 nM
- TGI (MDA-MB-231 breast): 1060 nM
- GI50 (NCI/ADR-RES ovarian): 1630 nM
- TGI (NCI/ADR-RES ovarian): 3660 nM
- GI50 (HOP-62 NSCLC): 358 nM
- TGI (HOP-62 NSCLC): 1590 nM
- GI50 (786-0 renal): 337 nM
- TGI (786-0 renal): 1340 nM
- GI50 (OVCAR-5 ovarian): 423 nM
- TGI (OVCAR-5 ovarian): 1700 nM
- GI50 (UO-31 renal): 1550 nM
- TGI (UO-31 renal): 3220 nM
- GI50 (MDA-MB-435): 340 nM
- TGI (MDA-MB-435): 1250 nM
- GI50 (HCT-116 colon): 183 nM
- TGI (HCT-116 colon): 1140 nM
- GI50 (HCT-15 colon): 966 nM
- TGI (HCT-15 colon): 2630 nM
- GI50 (ACHN renal): 708 nM
- TGI (ACHN renal): 1930 nM
- GI50 (HS 578T breast): 434 nM
- TGI (HS 578T breast): 2050 nM
- GI50 (EKVX NSCLC): 552 nM
- TGI (EKVX NSCLC): 2030 nM
- GI50 (SF-268 CNS): 441 nM
- TGI (SF-268 CNS): 1840 nM
